Values of other authors, collected in article PMC11211886 (Frontiers in Pharmacology, 2024).
Read-outs that look alike come from different tables or passages of the source.

How the values were obtained:
[1] = cited from earlier work; for incidence of ≥Grade 3 GI toxicity, including diarrhea and colitis: clinical trials, ref FDA, 2014, FDA, 2017, 2018, 2021
[2] = ref FDA, cited from earlier work
P-gp = system: P-gp; parameters: method as in FDA, 2014; FDA, 2017; FDA, 2018; FDA, 2021; details: ref FDA, 2014, 2017, 2018, 2021; cited from earlier work

Structure (SMILES): CC[C@H](Nc1ncnc2[nH]cnc12)c1nc2cccc(F)c2c(=O)n1-c1ccccc1 [idelalisib, Idelalisib]
- incidence of ≥Grade 3 GI toxicity, including diarrhea and colitis [1]: higher than 10%
- exposure in the intestines versus plasma [2]; 2014: 50 fold
- P-gp substrate status (P-gp): P-gp substrates

Structure (SMILES): C[C@H](Nc1ncnc2[nH]cnc12)c1cc2cccc(Cl)c2c(=O)n1-c1ccccc1 [duvelisib, Duvelisib]
- incidence of ≥Grade 3 GI toxicity, including diarrhea and colitis [1]: higher than 10%
- diarrhea, any-grade adverse event ([1]; ref Wang et al., 2023): 47%
- diarrhea, grade ≥3 AE ([1]; ref Wang et al., 2023): 12%
- exposure in the intestines versus plasma [2]; 2017: 100 fold
- P-gp substrate status (P-gp): P-gp substrates

Structure (SMILES): COc1c(OCCCN2CCOCC2)ccc2c1N=C(NC(=O)c1cnc(N)nc1)N1CCN=C21 [copanlisib, Copanlisib]
- incidence of ≥Grade 3 GI toxicity, including diarrhea and colitis [1]: higher than 10%
- diarrhea (TEAE) incidence ([1]; patients with indolent and aggressive lymphoma, phase II, ref Dreyling et al., 2017): 40.5%
- exposure in the intestines versus plasma [2]; 2018: 190 fold
- P-gp substrate status (P-gp): P-gp substrates
